Legend:
[1] = DPPH (1,1-diphenyl-2-picrylhydrazyl) test for the removal of free radicals; assay type: physicochemical; settings: c(test compound)/c(DPPH); DPPH 100 μmol/l in methanol; absorption at 515 nm
Experimental: The activity of the exemplary compounds as in examples 1 to 3 as free-radical scavengers was compared with that of conventional free-radical scavengers. For this purpose, the DPPH (1,1-diphenyl-2-picrylhydrazyl) test for the removal of free radicals was used.
DPPH was dissolved in methanol to a concentration of 100 μmol/l. A series of dilutions of the exemplary compounds, vitamin C, α-tocopherol and dibutylhydroxytoluene were prepared in methanol. Methanol served as the control. 2500 μl of the DPPH solution were mixed with 500 μl of each test solution and the decrease in absorption at 515 nm was read until the decrease was less than 2% per hour. The activity of the test substances as free-radical scavengers was calculated according to the following equation:
Activity as free-radical scavenger (%)=100−(absorption of the test compounds)/(absorption of the control)×100.
The activity as free-radical scavenger (%) in a series of dilutions of test compounds was used to calculate, for each test compound, the effective relative concentration EC50 (based on the starting concentration of DPPH, EC=c (test compound)/c(DPPH)) of a test compound at which 50% of the free radical DPPH had been removed.

[2] = Accelerated autoxidation of lipids by air (Rancimat apparatus), antioxidative index; assay type: physicochemical; settings: AOI=IP(with test solution)/IP(control sample); squalene purified over alumina, stabilized with 1 ppm α-tocopherol; dry air 20 l/h
Experimental: The activity of the exemplary compounds as in examples 1 to 3 as antioxidants was compared with that of conventional antioxidants. The test system used was the accelerated autoxidation of lipids by air with or without antioxidant using the Rancimat apparatus (Rancimat is a registered trademark of Metrohm AG, Herisau, Switzerland).
The exemplary compounds, vitamin C, α-tocopherol and dibutylhydroxytoluene were dissolved in methanol or acetone, and 100 μl of each test solution were added to a 3 g preprepared oil sample. In a control sample, only solvent was added. A constant stream of dry air (20 l/h) was bubbled through the heated oil sample which contained the test solution, and the volatile oxidation products (predominantly short-chain fatty acids such as formic acid or acetic acid) were collected in a receiver containing water. The conductivity of this aqueous solution was continuously measured and documented. The oxidation of (unsaturated) fats proceeds only very slowly for some time and then suddenly increases. The time to the increase is referred to as the induction period (IP).
The following equation was used to calculate the antioxidative index (AOI):
AOI=IP(with test solution)/IP(control sample).
The results for the experiment at […] in squalene that has been purified over alumina grade N and stabilized with 1 ppm of α-tocopherol are given in table 2: […]

Row | EC50 (effective relative concentration at which 50% of the free radical DPPH had been removed) [1] [mol/mol] | SMILES | AOI in squalene at 80° C. with 0.005% of test substance [2]
1 | 0.12 | CCCCC(CC)CNC(=O)C(O)c1ccc(O)c(O)c1 (stereo not drawn) [Example 1, 2-(3,4-Dihydroxyphenyl)-N-(2-ethylhexyl)-2-hydroxyacetamide] | 69
2 | 0.12 | CCCCCCNC(=O)C(O)c1ccc(O)c(O)c1 (stereo not drawn) [Example 3, 2-(3,4-Dihydroxyphenyl)-N-n-hexyl-2-hydroxyacetamide] | 55

More lines, now with the values behind:

Row | SMILES | EC50 (effective relative concentration at which 50% of the free radical DPPH had been removed) [1] [mol/mol] | AOI in squalene at 80° C. with 0.005% of test substance [2]
3 | Cc1c(C)c2c(c(C)c1O)CC[C@@](C)(CCC[C@H](C)CCC[C@H](C)CCCC(C)C)O2 [α-Tocopherol] | 0.25 | 39
4 | O=C1O[C@H]([C@@H](O)CO)C(O)=C1O [Vitamin C] | 0.27 | 0.7
5 | Cc1cc(C(C)(C)C)c(O)c(C(C)(C)C)c1 [Dibutylhydroxytoluene] | 0.24 | 38
6 | O=C(NC1CCCCC1)C(O)c1ccc(O)c(O)c1 (stereo not drawn) [Example 2, N-Cyclohexyl-2-(3,4-dihydroxyphenyl)-2-hydroxyacetamide] | 0.11 | 43

Source: patent US20030171617A1, “3,4-Dihydroxymandelic acid alkylamides and use thereof” (priority 2000, published 2003)
